From patent publication US8529949B2, “Pharmaceutical tablets of crystalline type II aripiprazole” (Synthon BV, priority 2005, dated 2013)
Read-outs that look alike come from different tables or passages of the source.

Tests used:
[1] = cited from earlier work
[2] = Hygroscopicity (water uptake) of crystalline aripiprazole forms; type: physicochemical; details: small particle population (d90 8-50 microns), unmilled

For `O=C1CCc2ccc(OCCCCN3CCN(c4cccc(Cl)c4Cl)CC3)cc2N1` [Anhydrous Form B, 7-[4-[4-(2,3-dichlorophenyl)-1-piperazinyl]butoxy]-3,4-dihydrocarbostyril], the “water uptake (hygroscopicity)” value ([1]; in 24 hours, per WO 03/26659) is given as “less than 0.4%”.

For `O=C1CCc2ccc(OCCCCN3CCN(c4cccc(Cl)c4Cl)CC3)cc2N1` [Type I aripiprazole, 7-[4-[4-(2,3-dichlorophenyl)-1-piperazinyl]butoxy]-3,4-dihydrocarbostyril], the hygroscopicity ([1]; as taught by WO 03/26659) is listed as “significantly hygroscopic”.

With `O=C1CCc2ccc(OCCCCN3CCN(c4cccc(Cl)c4Cl)CC3)cc2N1` [aripiprazole Type II, 7-[4-[4-(2,3-dichlorophenyl)-1-piperazinyl]butoxy]-3,4-dihydrocarbostyril] the hygroscopicity [2] was “not significantly hygroscopic and/or is non-hygroscopic”.
